Experimental data reported in patent US11927585B2, “Solvent-based inks and coatings for food contact applications” (SUN CHEMICAL CORPORATION, priority 2020, dated 2024).
Where two headings read alike, the source gives them in different places.

Key:
[1] = Worst-case calculation, Application 1 yoghurt pot lid exposure scenario; conditions: 100% migration, 2.0 g/m^2 dry film
[2] = Worst-case calculation (100% migration), standard EU Cube exposure model; conditions: 100% migration; for Worst-case calculation as a percentage of SML (or restriction), EU Cube: 2.0 g/m^2 dry film; for Worst Case Calculation of migration in EU Cube model (as a percentage of SML): dry coat weight 2.0 g/m^2
[3] = Worst-case calculation, Application 2 cheese packaging wrap exposure scenario; conditions: 100% migration, 2.0 g/m^2 dry film
[4] = Specific migration limit (SML) from regulation or hazard assessment (TTC, VEGA QSAR, Cramer Class); conditions: source HA (internal hazard assessment), self-derived SML; EU Cube model
[5] = cited from earlier work
[6] = substance in ink SBDEV977 (Ex. 4A Yellow)
[7] = substance in ink SBDEV980 (Ex. 4B Red)

| Compound | Worst-case calculation as a percentage of SML (or restriction), Application 1 ([1]; product SBDEV977) | Worst-case calculation as a percentage of SML (or restriction), Application 1 ([1]; product SBDEV1287) | Worst-case calculation as a percentage of SML (or restriction), EU Cube ([2]; product SBDEV977) | Worst-case calculation as a percentage of SML (or restriction), EU Cube ([2]; product SBDEV1287) | Worst Case Calculation of migration in EU Cube model (as a percentage of SML) [2, 6] | Worst-case calculation as a percentage of SML (or restriction), Application 2 ([3]; product SBDEV977) | Worst-case calculation as a percentage of SML (or restriction), Application 2 ([3]; product SBDEV1287) | SML or Restriction (mg substance/kg food) [4] | Worst-case calculation as a percentage of SML (or restriction), Application 1 ([1]; product SBDEV980) | Worst-case calculation as a percentage of SML (or restriction), Application 1 ([1]; product SBDEV1285) | Worst-case calculation as a percentage of SML (or restriction), EU Cube ([2]; product SBDEV980) | Worst-case calculation as a percentage of SML (or restriction), EU Cube ([2]; product SBDEV1285) | Worst Case Calculation of migration in EU Cube model (as a percentage of SML) [2, 7] | Worst-case calculation as a percentage of SML (or restriction), Application 2 ([3]; product SBDEV980) | Worst-case calculation as a percentage of SML (or restriction), Application 2 ([3]; product SBDEV1285) | further results |
| --- | --- | --- | --- | --- | --- | --- | --- | --- | --- | --- | --- | --- | --- | --- | --- | --- |
| CCCCCCCC/C=C\CCCCCCCC(=O)N(CCO)CCO [0000093-83-4, N,N-Bis(2-hydroxyethyl) oleamide] | 27.1 percentage of SML (or restriction) | 26.7 percentage of SML (or restriction) | 69 percentage of SML (or restriction) | 68 percentage of SML (or restriction) | 69 percentage of SML | 99.4 percentage of SML (or restriction) | 97.9 percentage of SML (or restriction) | 0.09 mg substance/kg food |  |  |  |  |  |  |  |  |
| CCO [ethanol] |  |  |  |  |  |  |  |  |  |  |  |  |  |  |  | SML (or restriction) ([5]; Source of SML or restriction: PR (EU Plastics Regulation No. 10/2011)): 60 mg substance/kg food; SML (or restriction) ([5]; source of SML or restriction: PR (EU Plastics Regulation No. 10/2011)): 60 mg substance/kg food |
| N#Cc1ccc(-c2ccccc2)cc1 [0002920-38-9, 4-Phenylbenzonitrile] |  |  |  |  |  |  |  | 0.09 mg substance/kg food | 2.0 percentage of SML (or restriction) | 2.0 percentage of SML (or restriction) | 5 percentage of SML (or restriction) | 5 percentage of SML (or restriction) | 5 percentage of SML | 7.2 percentage of SML (or restriction) | 7.2 percentage of SML (or restriction) |  |
| CCCCCCCC/C=C\CCCCCCCC(=O)OCC [0000111-62-6, Ethyl Oleate] | 9.42 percentage of SML (or restriction) | 8.91 percentage of SML (or restriction) | 24.0 percentage of SML (or restriction) | 22.7 percentage of SML (or restriction) | 24 percentage of SML | 34.6 percentage of SML (or restriction) | 32.68 percentage of SML (or restriction) | 0.09 mg substance/kg food | 9.45 percentage of SML (or restriction) | 8.91 percentage of SML (or restriction) | 24.0 percentage of SML (or restriction) | 22.7 percentage of SML (or restriction) | 24.0 percentage of SML | 34.5 percentage of SML (or restriction) | 32.68 percentage of SML (or restriction) | Worst-case calculation as a percentage of SML (or restriction), Application 1 ([1]; product SBDEV976): 9.42 percentage of SML (or restriction); Worst-case calculation as a percentage of SML (or restriction), Application 1 ([1]; product SBDEV979): 8.92 percentage of SML (or restriction); Worst-case calculation as a percentage of SML (or restriction), Application 1 ([1]; product SBDEV1284): 8.91 percentage of SML (or restriction); Worst-case calculation as a percentage of SML (or restriction), Application 1 ([1]; product SBDEV1286): 8.91 percentage of SML (or restriction); Worst-case calculation as a percentage of SML (or restriction), EU Cube ([2]; product SBDEV976): 24.0 percentage of SML (or restriction); Worst-case calculation as a percentage of SML (or restriction), EU Cube ([2]; product SBDEV979): 22.7 percentage of SML (or restriction); Worst-case calculation as a percentage of SML (or restriction), EU Cube ([2]; product SBDEV1284): 22.7 percentage of SML (or restriction); Worst-case calculation as a percentage of SML (or restriction), EU Cube ([2]; product SBDEV1286): 22.7 percentage of SML (or restriction); Worst Case Calculation of migration in EU Cube model (as a percentage of SML) ([2]; substance in ink SBDEV976 (Ex. 4C Cyan)): 24.0 percentage of SML; Worst Case Calculation of migration in EU Cube model (as a percentage of SML) ([2]; substance in ink SBDEV979 (Ex. 4D Black)): 22.2 percentage of SML; Worst-case calculation as a percentage of SML (or restriction), Application 2 ([3]; product SBDEV976): 34.6 percentage of SML (or restriction); Worst-case calculation as a percentage of SML (or restriction), Application 2 ([3]; product SBDEV979): 32.7 percentage of SML (or restriction); Worst-case calculation as a percentage of SML (or restriction), Application 2 ([3]; product SBDEV1284): 32.68 percentage of SML (or restriction); Worst-case calculation as a percentage of SML (or restriction), Application 2 ([3]; product SBDEV1286): 32.68 percentage of SML (or restriction) |
